According to US20220305003A1, “METHODS OF TREATING CANCER WITH AN INHIBITOR OF ZNF827” (CHILDREN'S MEDICAL RESEARCH INSTITUTE, priority 2019, published 2022):

Columns and labels:
Format in all cases: cell-based
HT1080 cells = test: Cell cycle analysis by flow cytometry (propidium iodide)
Procedure: For cell cycle analysis, cells were trypsinised, counted and collected by centrifugation at 1000 rpm for 5 minutes. 1×10^6 cells were resuspended in 0.5 mL PBS, then fixed in 5 mL of ice-cold 70% ethanol drop by drop whilst being gently vortexed. The cells were incubated on ice for 30 minutes then stored at −20° C. for 2-7 days until propidium iodide staining. Prior to propidium iodide (Sigma) staining, the ethanol fixed cells were centrifuged at 300×g for 6 minutes to remove ethanol, washed once with PBS, and resuspended in 0.5 mL PBS per 1×10^6 cells. The fixed cells were treated with 0.5 mg of RNase (Sigma) and 25 μg of propidium iodide at 37° C. for 30 minutes, and then allowed to return to room temperature in the dark for 10 minutes. Labelled cells were analysed using the BD FACSCanto Flow Cytometer (BD Biosciences) containing a blue air cooled 488 nm argon laser to excite propidium iodide. Between 10 000-15 000 events were collected at an approximate flow rate of 200 events/second. The forward scatter (FSC, size) and side scatter (SSC, internal granularity) of each cell was recorded. To discriminate and eliminate cell debris and doublets, the pulse area (FL2-A) was plotted against the pulse width (FL2-W). Doublets identified as cells with 4N DNA content and increasing pulse width were eliminated. A histogram displaying the cell counts against the FL2-A was used to calculate the percentage of cells in each cell cycle phase, as well as the percentage of non-viable cells. Data analysis was conducted using BD FACS Diva software (BD Bioscience).

U-2 OS cells [1] = test: RPA foci by immunofluorescence in U-2 OS cells
Procedure: Topotecan and aphidicolin were used in this study. For experiments where they were used to cause replication stress and DNA damage, cells were treated with topotecan 2 μg/mL for either 1 hour or 24 hours, or aphidicolin 1 μM for 20 hours. For replication fork stalling induction in the PCNA colocalisation experiments, cells were treated with aphidicolin 0.4 μM for 6-8 hours. Topotecan and aphidicolin were dissolved in DMSO. DMSO was used as a control.
Cells were transfected using Lipofectamine RNAiMAX transfection reagent (ThermoFisher Scientific) with an siRNA concentration of […]. For transfection in a 75 cm^2flask, 3 mL reduced serum medium Opti-MEM (Gibco) was combined with 15 μL of 20 μM siRNA, mixed gently to cover the surface area of the flask and incubated at room temperature for 5 minutes. 30 μL of Lipofectamine RNAiMAX transfection reagent was then added to the mixture, and mixed and incubated for a further 15 minutes at room temperature. Meanwhile, cells to be transfected were trypsinised, resuspended in DMEM supplemented with 10% FCS, and counted using a Beckman Coulter cell counter. 0.8-1×10^6 cells in DMEM supplemented with 10% FCS were directly pipetted onto the transfection mixture in the flask, and shaken gently to mix. Additional DMEM supplemented with 10% FCS was added to the flask up to a total volume of 15 mL. Cells were harvested 72 hours post-transfection for knockdown validation and subsequent experiments.
Cells cultured on coverslips were fixed in 2% paraformaldehyde in PBS at room temperature for 10 minutes. Cells fixed on coverslips were rinsed with deionised water, and then permeabilised using KCM buffer (120 mM potassium chloride, 20 mM NaCl, 10 mM Tris, pH 7.5, 0.1% Triton X-100) at room temperature for 10 minutes. Coverslips were blocked with antibody diluent buffer (ABDIL—20 mM Tris-Cl, pH 7.5, 2% BSA, 0.2% fish gelatine, 150 mM NaCl, 0.1% Triton X-100, 0.1% sodium azide) containing 100 μg/mL RNase A at room temperature for one hour. […] Quantitated analysis was conducted by automation with CellProfiler (Broad Institute).

U-2 OS cells [2] = test: Comet assay (tail moment)
Procedure: Comet assays were performed using the CometAssay® kit (Trevigen) according to the manufacturer's protocol with minor modifications. Briefly, cells were counted and resuspended in PBS. 20 μl of cells at 1×10^5/mL were combined with molten LMAgarose (Trevigen) at 37° C. The cell mixture was pipetted onto the sample area of a prewarmed slide (CometSlide™, Trevigen). Slides were cooled at 4° C. in the dark for 25 minutes, and then immersed in ice-cold lysis solution (CometAssay® kit, Trevigen) at 4° C. overnight. On the following day, slides were removed from lysis solution and gently immersed in ice-cold 1× neutral electrophoresis buffer ([…]) for 30 minutes. Slides were then electrophoresed in 1× neutral electrophoresis buffer ([…]) for 45 minutes at 1 V/cm. Following electrophoresis, slides were immersed in DNA precipitation solution (1 M ammonium acetate in 95% ethanol) for 30 minutes at room temperature. Slides were then transferred and immersed in 70% ethanol for 30 minutes at room temperature. Slides were then dried for 15 minutes at 37° C., incubated with 1 μM YOYO stain (Invitrogen) for 5 minutes, and Prolong Gold Antifade (Invitrogen) and stored at 4° C. until microscope analysis.

[3] = agent alone (topotecan 2 μg/mL 1 hr, or 72 hr siRNA knockdown in unchallenged cells)
[4] = agent alone (topotecan 2 μg/mL 24 hr, or 72 hr siRNA knockdown in unchallenged cells)

Compound	cell cycle profile (HT1080 cells; [3])	total nuclear RPA foci (U-2 OS cells [1]; [4])	cell cycle profile (HT1080 cells; 72 hr siRNA knockdown in conjunction with topotecan 2 μg/mL 1 hr)	DNA damage measured as tail moment (U-2 OS cells [2]; 72 hr siRNA knockdown alone (DMSO))	DNA damage measured as tail moment (U-2 OS cells [2]; 72 hr siRNA knockdown in conjunction with topotecan 2 μg/mL 24 hr)	total nuclear RPA foci (U-2 OS cells [1]; 72 hr siRNA knockdown of ZNF827 in topotecan-treated cells (2 μg/mL, 24 hr))
CC[C@@]1(O)C(=O)OCc2c1cc1n(c2=O)Cc2cc3c(CN(C)C)c(O)ccc3nc2-1 [topotecan]	distinct G2/M arrest	greatly induced RPA foci	–	–	–	–
siZNF827: Stealth RNAi siRNA ZNF827HSS135819 duplex oligoribonucleotides (Invitrogen), SEQ ID NO: 12 and 13 (chain 1 GGGCAGUCUUCUGGCUGAGAAAUCA; chain 2 UGAUUUCUCAGCCAGAAGACUGCCC; listed as RNA, further chemistry not given here)	subtle increase in S phase cells accompanied by a reduction in G2/M cells	substantially increased the total number of nuclear RPA foci	conspicuous G1 arrest while reducing the G2/M arrest	caused DNA damage measured as tail moment to a similar extent as topotecan treatment	further increased the amount of DNA damage	did not cause an observable increase in overall RPA foci
